Source: PubChem BioAssay AID2060599 (Molecular Pharmacology Branch, DTP, NCI, 2025)

System: 817829-284-R-J1-PDC complex spheroids, viability
Experiment: Anticancer human tumor 817829-284-R-J1-PDC patient-derived colon adenocarcinoma cell line growth inhibition [CLK]
Settings: for IC50: curve of first compound; for viability, T/C: stronger effect = lower value
Description: A high-throughput screen of multi-cell type tumor spheroids was designed to identify active combinations of […] and targeted small molecules. Complex spheroids include a stromal component modeled by human endothelial cells (HUVEC) and fibroblasts modeled by human mesenchymal stem cells (MSCs). The concentration ranges selected for each drug and investigational agent were based upon clinically achievable concentrations if the clinical Cmax of the agent was known.
Compounds. The drugs and investigational agents: cirtuvivint (SM08502; NSC835563), CC-671 (NSC850746), vemurafenib (NSC761431), tapotoclax (NSC804041), sotorasib (NSC818433), adagrasib (NSC831453), MRTX-1133 (NSC836407), BAY2416964 (NSC825713), copanlisib (NSC816437), inavolisib (NSC800729), abemaciclib (NSC768073), osimertinib (NSC779217), entinostat (NSC756642), eltanexor (KPT-8602, NSC794443), venetoclax (NSC766270), ceralasertib (NSC777638), bortezomib (NSC756655), olaparib (NSC753686), talazoparib (NSC767125), alisertib (NSC759677), peposertib (NSC802822), gemcitabine (NSC613327), 5-fluorouracil (NSC19893), SN-38 (NSC673596), oxaliplatin (NSC266046), paclitaxel (NSC125973), and doxorubicin (NSC123127), were obtained from the National Cancer Institute (NCI) Developmental Therapeutics Program Chemical Repository. The FDA-approved anticancer drug set is available from the Developmental Therapeutics Program at https://dtp.cancer.gov/organization/dscb/obtaining/available plates.htm. […] The stock solutions were prepared in dimethyl sulfoxide (DMSO, Sigma-Aldrich, St. Louis, MO, cat. D2650), except for the platinum complexes which were prepared in saline (Quality Biological, Gaithersburg, MD, cat. 114-055-101), at 800-fold the tested concentration and stored at -70 degrees C prior to their use. All drugs and investigational agents were tested over a range starting from a high concentration at or near the clinical Cmax and decreasing in half-log increments. If the clinical Cmax for an agent had not been determined, the highest concentration tested was 10 microM.
Cell Culture. All cells were maintained in an incubator at 37 degrees C and 5% CO2 with 95% humidity. The PDC lines were cultured according to standard operating procedures established by the NCI PDMR. Briefly, all PDCs were thawed and cultured in Matrigel-coated flasks prepared with a working solution of 1X Ham's F-12 nutrient mix, without supplementation (Invitrogen, Waltham, MA, cat. 11765054), 100 U/mL penicillin-streptomycin (Invitrogen, cat. 15140122), and 2.5% Matrigel (Corning Inc., Corning, NY, cat. 354248) for the first three passages. The 947758-054-R-J2-PDC line was cultured in 6B/Colon 1A media, which includes advanced DMEM/F-12 (Thermo Fisher Scientific, cat. 12634028), 10 mM HEPES (Thermo Fisher Scientific, cat. 15630080), 1X GlutaMAX supplement (Thermo Fisher Scientific, cat. 35050061), 0.1 mg/mL primocin (InvivoGen, cat. ant-pm-2), 10% defined fetal bovine serum, heat inactivated (HyClone Laboratories Inc., cat. SH30070.03HI), 1.25 mM N-Acetyl-L-cysteine (Sigma-Aldrich, cat. A9165), 10 mM nicotinamide (Sigma-Aldrich, cat. N0636), 1X B-27 supplement (Thermo Fisher Scientific, cat. 17504044), 1X N-2 supplement (Thermo Fisher Scientific, cat. 17502048), and 10 microM Y-27632 dihydrochloride (Tocris Bioscience, cat. 1254). The 876862-298-R-J1-PDC was cultured in 6E media, which includes all 6B/Colon 1A media components plus 50% L-WRN conditioned media (ATCC, cat. CRL-3276), 50 ng/mL recombinant human EGF recombinant protein (hEGF; Thermo Fisher Scientific, cat. PHG0311), 10 ng/mL recombinant human fibroblast growth factor 10 (hGFG-10; PeproTech, cat. 100-26), 1 ng/mL recombinant human fibroblast growth factor 2 (hFGF-2; PeproTech, cat. 100-18B), and 1 µM prostaglandin E2 (PGE2; Tocris, cat. 2296). The 227483-062-R1-J1-PDC line was cultured in Panc media, containing all 6E components except hFGF-2, with the addition of 500 nM SB-431542 (Selleckchem, cat. S1067) and 10 nM gastrin (Tocris, cat. 3006). […]
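Further: spheroids exposed to the agents for seven days before readout.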

`CC(C)CC(NC(=O)C(Cc1ccccc1)NC(=O)c1cnccn1)B(O)O` (configuration not stated) + CN1CCN(c2cc(C(=O)Nc3cc4cc(-c5cnn(C)c5)ccc4cn3)ccn2)CC1 showed an IC50 (second compound 0.0316 µM) of 1.09 nM, an IC50 (second compound 0.1 µM) of less than 0.949 nM and an IC50 (second compound 0.316 µM) of less than 0.949 nM. It also gave an IC50 (second compound 1 µM) of less than 0.949 nM, an IC50 (second compound 3.16 µM) of less than 0.949 nM and an IC50 (second compound 10 µM) of less than 0.949 nM. It also gave a viability, T/C (second compound 0.0316 µM, first compound 0.000949 µM) of 56.9%, a viability, T/C (second compound 0.0316 µM, first compound 0.003 µM) of 0.32% and a viability, T/C (second compound 0.0316 µM, first compound 0.00949 µM) of 0.15%. The viability, T/C (second compound 0.0316 µM, first compound 0.03 µM) was 0.1%, the viability, T/C (second compound 0.0316 µM, first compound 0.0949 µM) was 0.08% and the viability, T/C (second compound 0.0316 µM, first compound 0.3 µM) was 0.06%. It also gave a viability, T/C (second compound 0.1 µM, first compound 0.000949 µM) of 8.37%, a viability, T/C (second compound 0.1 µM, first compound 0.003 µM) of 0.1% and a viability, T/C (second compound 0.1 µM, first compound 0.00949 µM) of 0.11%. For the same compound, the viability, T/C (second compound 0.1 µM, first compound 0.03 µM) was 0.08%, the viability, T/C (second compound 0.1 µM, first compound 0.0949 µM) was 0.06% and the viability, T/C (second compound 0.1 µM, first compound 0.3 µM) was 0.06%. The viability, T/C (second compound 0.316 µM, first compound 0.000949 µM) was 0.43%, the viability, T/C (second compound 0.316 µM, first compound 0.003 µM) was 0.07% and the viability, T/C (second compound 0.316 µM, first compound 0.00949 µM) was 0.09%. The viability, T/C (second compound 0.316 µM, first compound 0.03 µM) was 0.04%, the viability, T/C (second compound 0.316 µM, first compound 0.0949 µM) was 0.05% and the viability, T/C (second compound 0.316 µM, first compound 0.3 µM) was 0.05%. The viability, T/C (second compound 1 µM, first compound 0.000949 µM) was 0.08%, the viability, T/C (second compound 1 µM, first compound 0.003 µM) was 0.06% and the viability, T/C (second compound 1 µM, first compound 0.00949 µM) was 0.05%. It also gave a viability, T/C (second compound 1 µM, first compound 0.03 µM) of 0.04%, a viability, T/C (second compound 1 µM, first compound 0.0949 µM) of 0.05% and a viability, T/C (second compound 1 µM, first compound 0.3 µM) of 0.05%. The viability, T/C (second compound 3.16 µM, first compound 0.000949 µM) was 0.07%, the viability, T/C (second compound 3.16 µM, first compound 0.003 µM) was 0.06% and the viability, T/C (second compound 3.16 µM, first compound 0.00949 µM) was 0.06%. It also gave a viability, T/C (second compound 3.16 µM, first compound 0.03 µM) of 0.04%, a viability, T/C (second compound 3.16 µM, first compound 0.0949 µM) of 0.07% and a viability, T/C (second compound 3.16 µM, first compound 0.3 µM) of 0.07%. The viability, T/C (second compound 10 µM, first compound 0.000949 µM) was 0.03%, the viability, T/C (second compound 10 µM, first compound 0.003 µM) was 0.06% and the viability, T/C (second compound 10 µM, first compound 0.00949 µM) was 0.09%. For the same compound, the viability, T/C (second compound 10 µM, first compound 0.03 µM) was 0.09%, the viability, T/C (second compound 10 µM, first compound 0.0949 µM) was 0.15% and the viability, T/C (second compound 10 µM, first compound 0.3 µM) was 0.11%.
